Paper PMC11683478, “Bioprospecting of culturable marine biofilm bacteria for novel antimicrobial peptides” (iMeta, 2024)

How the values were obtained:
Experiment in all cases: Antibacterial screen at 200 μg/mL (cell density vs control)
Format in all cases: cell-based
Settings in all cases: peptide 200 μg/mL, CAMHB, 5 × 10^5 CFU/mL, 37°C, 12 h, OD600; control (no AMP) = 1; three biological replicates
[1] = system: Staphylococcus aureus ATCC 12600
Method: (§1) Eight bacterial strains were utilized in the antibacterial experiment. S. aureus ATCC 12600, B. subtilis ATCC 23857, E. coli ATCC 11775, and A. baumannii ATCC 19606 were purchased from Shanghai Beinuo Biology. M. luteus ATCC 4698 and S. bongori ATCC43975 were purchased from Shanghai Beisi Biotechnology. V. owensii ems001 and V. alginolyticus xv22 from the intestines of diseased shrimps were isolated in our laboratory. All strains were cultured in the cation‐adjusted Mueller‐Hinton broth (CAMHB) at 37°C to the logarithmic growth phase (OD600 = 0.5). Then, bacteria were gradient‐diluted using fresh CAMHB to a bacterial density of 5 × 10^5 CFU/mL. Antibacterial experiments were performed in a 96‐well plate with 200 μg/mL final peptide concentration. Four experimental groups were set up, including a blank control (200 μL CAMHB), a negative control (180 μL CAMHB plus 20 μL peptide), a positive control (180 μL bacterial culture plus 20 μL ultrapure water), and an experimental group (180 μL bacterial culture plus 20 μL peptide). Three biological replicates were conducted for each group, and OD600 values were measured after incubation at 37°C for 12 h. Every observed value was removed from the blank control group value. The value of the experimental group was then subtracted from the value of the negative control group therefore eradicating the effect of the peptide on the OD measurement. Student's t‐test allowed the estimation of a notable variation between the experimental and positive groups using a p‐value of 0.05 as the limit. […] The MIC of a peptide against a bacterium was determined as the minimum peptide concentration at which there was no visible bacterial growth.

[2] = system: Vibrio alginolyticus xv22
Method: as §1

[3] = system: Acinetobacter baumannii ATCC 19606
Method: as §1

[4] = system: Escherichia coli ATCC 11775
Method: as §1

[5] = system: Micrococcus luteus ATCC 4698
Method: as §1

[6] = system: Salmonella bongori ATCC 43975
Method: as §1

[7] = system: Bacillus subtilis ATCC 23857
Method: as §1

Vibrio owensii ems001 = system: Vibrio owensii ems001
Method: as §1

Sequence	cell density relative to control, S. aureus ATCC 12600 [1]	cell density relative to control, V. alginolyticus xv22 [2]	cell density relative to control, A. baumannii ATCC 19606 [3]	cell density relative to control, E. coli ATCC 11775 [4]	cell density relative to control, M. luteus ATCC 4698 [5]	cell density relative to control, S. bongori ATCC 43975 [6]	cell density relative to control, B. subtilis ATCC 23857 [7]	cell density relative to control, V. owensii ems001 (Vibrio owensii ems001)
MCTSKKKVWRCVAPS [Cand-33, chemically synthesized candidate AMP predicted from marine biofilm bacteria]	0.874	0.879	0.813	0.96	1	1	0.601	1
MVKLLKKMVSLYH [Cand-122, chemically synthesized candidate AMP predicted from marine biofilm bacteria]	0	1	0.907	0.642	0.728	0.455	0.002	0.188
MFKFFCCIFYMCRIKTH [Cand-18, chemically synthesized candidate AMP predicted from marine biofilm bacteria]	0	0	0.014	0.004	0	0.031	0	0.007
MGAVCRMGSLPCLIPRGAIRLG [Cand-198, chemically synthesized candidate AMP predicted from marine biofilm bacteria]	0.817	0.891	0.765	0.844	1	0.827	1	0.904
MRKGCKLIPCICDVNCRRRTG [Cand-8, chemically synthesized candidate AMP predicted from marine biofilm bacteria]	0.364	0.286	0.201	0	0	0	0.257	0.653
MGTYPKVGNSHWKR [Cand-69, chemically synthesized candidate AMP predicted from marine biofilm bacteria]	0.819	1	0.889	1	1	0.886	1	1
MGPHWRGPRWGRVGCWNL [Cand-154, chemically synthesized candidate AMP predicted from marine biofilm bacteria]	0.038	0.077	1	0.622	0.814	0.544	0	0.004
MLKLSWNLCRPIGRRW [Cand-186, chemically synthesized candidate AMP predicted from marine biofilm bacteria]	0.112	0.192	0.276	0.036	0.164	0.245	0	0.091
MRPCMCRIGGRL [Cand-19, chemically synthesized candidate AMP predicted from marine biofilm bacteria]	1	1	1	1	1	0.929	1	1
MRVGMCRIGGRL [Cand-79, chemically synthesized candidate AMP predicted from marine biofilm bacteria]	0.728	0.8	0.975	0.73	1	0.975	0.837	1
MTWPSRSRMWRTC [Cand-129, chemically synthesized candidate AMP predicted from marine biofilm bacteria]	0.012	0.004	1	0.692	0.751	0.704	0.061	0.021
MCCVGRGVSFLRTRKCFIKS [Cand-161, chemically synthesized candidate AMP predicted from marine biofilm bacteria]	0.001	0	0.543	0	0.788	0.12	0	0
MRPCMCRIGGGH [Cand-13, chemically synthesized candidate AMP predicted from marine biofilm bacteria]	0.795	0.942	0.816	1	1	0.926	1	1
MWTVRPRICAARGRL [Cand-172, chemically synthesized candidate AMP predicted from marine biofilm bacteria]	0	0	1	1	0.9	0.898	0	0
MCALKWFCKSLIRALNKAT [Cand-68, chemically synthesized candidate AMP predicted from marine biofilm bacteria]	0	0.012	0	0	0.001	0.024	0	0
